In article PMC11087268, “A folate inhibitor exploits metabolic differences in Pseudomonas aeruginosa for narrow-spectrum targeting” (Nature Microbiology, 2024):
Converted amounts (≈) assume the structure as drawn. “And” between values parts separate entries of the source, which are not always exact repeats. Identical values can stand only once. Like-named read-outs stand apart in the source and are kept apart here.

Columns and labels:
[1] = tested on: P. aeruginosa clinical isolates; format: cell-based, Pseudomonas aeruginosa
Method: Percent growth was calculated by dividing the OD600 of fluorofolin antibiotic-treated wells by that of vehicle-only wells.

[2] = tested on: PBMC (peripheral blood mononuclear cell); test: Mammalian cell cytotoxicity, PBMC; format: cell-based, human
Method: (§1) HK-2 (500 cells per well) (ATCC CRL-2190), HLF (500 cells per well) (Cell Applications 506K-05a), WI-38 (500 cells per well) (ATCC CCL-75) or PBMC (5,000 cells per well) (TPCS PB010C) cells were seeded in white opaque 384-well plates. After 24 h, DMSO or compounds were added in 3-fold dilutions and cells incubated for 72 h. For PBMC, CellTiter-Glo reagent was added in equal volume and incubated for 30 min, after which luminescence was read. For other cell types, CyQUANT detection reagent was added in equal volume and cells incubated for 1 h, after which fluorescence was read with standard green filter set […]. Cell toxicity was evaluated by Pharmaron.

[3] = tested on: Salmonella typhimurium CMCC 50115; test: MIC (WuXi, Mueller–Hinton broth) against S. typhimurium; format: cell-based; conditions: Salmonella enterica, performed by WuXi
Method: Bacterial colonies (4–8) of strains of interest were vortexed in saline and adjusted to an OD600 of 0.2. Strains were diluted 1:200 into CAMHB media in 96-well plates. Antibiotics were serially diluted 1:3 in DMSO, and 1 μl of each dilution was added to bacteria. The plates were incubated for 18–20 h at 37 °C before observation.

S. epidermidis = test: Growth with or without TMI supplementation and fluorofolin, S. epidermidis; format: cell-based, Staphylococcus epidermidis; conditions: fluorofolin 2X MIC
Method: Where listed, growth media were prepared according manufacturer recommendations: LB broth and LB broth supplemented with 0.3 mM thymine (BD Biosciences 244610, Alfa Aesar A15879), 0.3 mM methionine (Sigma-Aldrich M9625), 0.3 mM inosine (EMD Millipore 4060), cation-adjusted Mueller–Hinton II broth (CAMHB) (BD 212322) or 0.3 mM thymidine (Sigma-Aldrich T1895), Gutnick minimal media (1.0 g l^−1 K2SO4, 13.5 g l^−1 K2HPO4, 4.7 g l^−1 KH2PO4, 0.1 g l^−1 MgSO4·7H2O, 10 mM NH4Cl as a nitrogen source and 0.4% w/v glucose as a carbon source)[65].
Extended Data Fig. 3 TMI supplementation can also rescue other species from fluorofolin DHFR inhibition. […] (f) P. aeruginosa PA14 or E. coli lptd4213 treated with fluorofolin 50 μg/mL in the presence or absence of 0.3 mM thymidine. (g) E. coli lptd4213 treated with fluorofolin 50 μg/mL and SMX (78.1 μg/mL) in the presence or absence of 0.3 mM thymidine or 0.3 mM TMI supplementation, Curves represent average optical at 600 nm (OD600) of 2 biological replicates. Means are shown. Source data

[4] = tested on: HK-2 (human kidney epithelial); test: Mammalian cell cytotoxicity, HK-2; format: cell-based; conditions: 72 h, CyQUANT, read-out: IC50 Fluorofolin
Method: as §1

[5] = tested on: Staphylococcus epidermidis EGM-206; test: MIC against S. epidermidis EGM-206 in LB broth; format: cell-based; conditions: EGM206, 16 h, 37 °C, OD600
Method: (§2) Overnight cultures were diluted 1:150 in LB broth and added to a 96-well plate. Antibiotics were serially diluted 1:2 and added to columns of the 96-well plate and grown at 37 °C with continuous shaking. Cell growth was measured using optical density at 600 nm (OD600). MIC assays were performed in either BioTek Synergy HT or Tecan InfiniteM200 Pro microplate readers.

[6] = tested on: P. aeruginosa PA14 folate metabolism (dUMP, AICAR, GAR); test: Metabolomics (LC–MS) of treated PA14; format: cell-based, Pseudomonas aeruginosa; conditions: PA14, 15 min
Method: Metabolites were extracted by vacuum filtering 15 ml of treated cells using 0.45 μm HNWP Millipore nylon membranes and placing the filters into an ice-cold quenching solution of 40:40:20 methanol:acetonitrile:H2O. Extracts were kept on dry ice for 1 h and centrifuged at 16,000 g for 1 h at 4 °C. The supernatant was kept at -80 °C until mass spectrometry analysis. Liquid chromatography-mass spectrometry (LC-MS) analysis of metabolites was performed on an Orbitrap Exploris 240 mass spectrometer coupled with hydrophilic interaction liquid chromatography (HILIC)[68]. […] Waters 196006724), with a gradient of solvent A (95 vol. % H2O, 5 vol. % acetonitrile, with 20 mM ammonium acetate and 20 mM ammonium hydroxide, pH 9.4) and solvent B (acetonitrile). Flow rate was 0.15 ml min^-1 and column temperature was set at 25 °C. […] Raw mass spectrometry data were converted to mzXML format by MSConvert (ProteoWizard). Pick-peaking was done on […].0.8.0, Elucidata).

human DHFR = biological target: T1, human DHFR (Homo sapiens, UniProt P00374); test: Human DHFR in vitro assay; format: biochemical; conditions: for Normalized activity to no drug control: human DHFR
T1 construct: purchased R&D Systems 8456-DR
T1 sequence (P00374 1-187): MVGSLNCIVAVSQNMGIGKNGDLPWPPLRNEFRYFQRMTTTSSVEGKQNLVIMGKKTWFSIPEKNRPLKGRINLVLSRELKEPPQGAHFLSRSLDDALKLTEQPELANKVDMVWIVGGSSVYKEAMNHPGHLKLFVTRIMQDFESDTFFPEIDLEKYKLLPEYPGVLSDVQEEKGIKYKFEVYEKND

[7] = tested on: Escherichia coli NCM-3722; test: MIC against E. coli NCM-3722 in LB broth; format: cell-based; conditions: NCM3722, 16 h, 37 °C, OD600
Method: as §2

[8] = tested on: P. aeruginosa PA14 mexS L46F mutant; test: MIC against fluorofolin-resistant PA14 mexS L46F mutant; format: cell-based; conditions: Pseudomonas aeruginosa
Method: as §2
Single colonies were picked and inoculated into fresh LB broth. This process was repeated for a total of ten passages. At each passage, the MIC was recalculated and compared to a culture that had not been previously exposed to fluorofolin, which was also grown as a control to confirm antibiotic potency. Cells from each passage were stored as a frozen stock.

[9] = 2× MIC (fluorofolin 6.3, TMP 250 μg ml^−1), one value per replicate

For `Nc1nc(N)c2c(ccc3c2ccn3Cc2ccnc(F)c2)n1` [fluorofolin], the isolates inhibited [1] was 90%, the “number of isolates inhibited” value [1] was 69 and the “sensitivity of isolates with dfrB2” value [1] was “fluorofolin-sensitive”. The “number of resistant isolates” value ([1]; 22 blood isolates, 50 μg ml^−1) was “None”, the “number of resistant isolates” value ([1]; 55 CDC isolates, 50 μg ml^−1) was 8 and the clinical isolates resistant ([1]; 77 P. aeruginosa clinical isolates (55 CDC/FDA, 22 blood), 50 μg ml^−1, growth inhibition >80% = sensitive) was 10.4%. For the same molecule, the “sensitivity of carbapenemase isolates” value ([1]; clinical isolates expressing KPC-5 and NDM-1) was “remained sensitive”, the clinical isolates resistant ([1]; earlier manuscript version quoted by reviewers, antibiotic resistance isolate bank only) was 14.5% and the IC50 ([2]; Homo sapiens, PBMC, 72 h, CellTiter-Glo, read-out: IC50 Fluorofolin) was 39.8 µg/mL (≈ 129 µM). For the same molecule, the “increase in IC50 compared with IRS-16” value ([2]; PBMCs) was 9.6 fold, the MIC [3] was 0.03 µg/mL (≈ 0.0973 µM) and the “rescue of growth inhibition by TMI supplementation” value (S. epidermidis) was “could also be rescued from fluorofolin growth inhibition by TMI supplementation”. For the same molecule, the IC50 [4] was 51.7 µg/mL (≈ 168 µM), the MIC [5] was 0.312 µg/mL and the “change of AICAR and dUMP” value ([6]; 2× MIC) was “significant upregulation”. For the same molecule, the “Normalized Ion Counts AICAR” value [6, 9] was 667209 and 798823 and 294672, the “Normalized Ion Counts GAR” value [6, 9] was 62925.5 and 135659 and 3851.78 and the “Normalized Ion Counts dUMP” value [6, 9] was 5000000 and 3000000 and 2000000. The “Normalized activity to no drug control” value (human DHFR; Fluorofolin 0.12207 nM) was 1.039, the “Normalized activity to no drug control” value (human DHFR; Fluorofolin 0.488281 nM) was 1.039 and the “Normalized activity to no drug control” value (human DHFR; Fluorofolin 1.95312 nM, replicates _1, _2) was 0.9215 and 1.02. The “Normalized activity to no drug control” value (human DHFR; Fluorofolin 7.8125 nM, replicates _1, _2) was 0.5724 and 0.64, the “Normalized activity to no drug control” value (human DHFR; Fluorofolin 31.25 nM, replicates _1, _2) was 0.387 and 0.4828 and the “Normalized activity to no drug control” value (human DHFR; Fluorofolin 125 nM, replicates _1, _2) was 0.2567 and 0.2221. The “Normalized activity to no drug control” value (human DHFR; Fluorofolin 500 nM, replicates _1, _2) was 0.1373 and 0.1034, the “Normalized activity to no drug control” value (human DHFR; Fluorofolin 2000 nM, replicates _1, _2) was 0.03994 and 0.01531 and the IC50 (human DHFR; purified human DHFR) was 14 ± 4 nM. For the same molecule, the MIC [7] was 0.312 µg/mL and the MIC [8] was 62.5 µg/mL.
